Data reported in patent publication US11261187B2, “Compounds and methods for targeting HSP90” (Duke University, priority 2016, dated 2022).

Assays:
[1] = Storage stability by LC/MS at a later date; format: physicochemical; conditions: primarily to the hydride
Procedure: Compound 116 (50 mg, 33 μmol), hexamethylditin (14 mg, 9 μL, 42 μmol) and tetrakis triphenylphosphine palladium(0) (1 mg 1 μmol) were slurried in dioxane (1 mL), purged with nitrogen for 30 m and heated to 100° C. for an hour. The reaction was mixture was adsorbed onto silica gel and chromatographed (50 g C18, 0.2% formic acid to 100% MeOH) to give product 118 (13.9 mg, 27%) as a blue solid. LC/MS gives a single peak with a little shoulder with m/z=785.8 [M+2H]^2+ as part of a cluster typical of Tin compounds.

MDA-MB-468 cells [2] = assay: Confocal imaging of eHsp90 puncta in probe-treated tumor cells; format: cell-based
Procedure: (§1) Cells were plated on uncoated 18-mm round coverslips in 12 well plates at 150,000 cells/well and were allowed to adhere overnight. 100, in a stock solution in DMSO, was diluted in serum-free/phenol red-free DMEM. After drug incubation, the cells were washed twice with ice-cold PBS, fixed with 1% PFA in PBS for 10 min, and stained with 5 μg/mL wheat germ agglutinin-488 (WGA-488, Invitrogen, Waltham, Mass.) and either Hoescht or DAPI. The coverslips were washed and mounted onto microscope slides using FluorSave mounting reagent (Millipore, Darmstadt, Germany). Slides were imaged on a Leica SP5 confocal microscope.
(§2) Images were analyzed for fluorescence and puncta using ImageJ software using a non-biased, high-throughput macro. In brief, cells were selected using an expanded selection from the DAPI channel. The regions of interest were then masked, a watershed filter was applied to split adjacent cells into separate cells, and the regions of interest were applied to the 100 channel to measure fluorescence and puncta. High resolution confocal stacks were deconvolved with Hyugen's Deconvolution Software or AiryScan.
Using a standard fluorescence curve, the concentration within the puncta of 100 was estimated to be 4.66±0.05 μM. […]

non-malignant cells = assay: Puncta formation on non-malignant cells; format: cell-based
Procedure: Using a standard fluorescence curve, the concentration within the puncta of 100 was estimated to be 4.66±0.05 μM. Based on puncta volume and a ratio of 1:1 for 100:Hsp90 (as each monomer of Hsp90 has a single ATP-binding site), the larger puncta are estimated to contain 2659±105 monomers of eHsp90. Accumulation of the puncta intracellularly is time-dependent (FIG. 3b). Formation of the puncta is eHsp90-dependent and not related to any physiochemical properties of the probes themselves. […] This diffusion may be a result of exchange with intracellular ATP or the degradation of the internalized eHsp90. Probe aggregates alone would not be expected to spontaneously dissipate without the addition of some form of organic solvent.

eHsp90 [3] = assay: Competition of fluorescent probe binding to eHsp90 on cells by untethered Hsp90 inhibitors; format: cell-based
Procedure: Cells were plated on uncoated 18-mm round coverslips in 12 well plates at 150,000 cells/well and were allowed to adhere overnight. 100, in a stock solution in DMSO, was diluted in serum-free/phenol red-free DMEM. […] The coverslips were washed and mounted onto microscope slides using FluorSave mounting reagent (Millipore, Darmstadt, Germany). Slides were imaged on a Leica SP5 confocal microscope.
as §2
(§3) To analyze the internalization of eHsp90 in transformed cells, the 4T1 cell model was utilized.

eHsp90 [4] = assay: Live imaging and tracking of puncta (lattice light sheet microscope); format: cell-based; conditions: 10 μM 100 competed with 100 μM HS-10
Procedure: Live imaging was also performed on cells treated with 100 alone, 101, or 100 and HS-10, and spots were tracked over time to investigate any differences in puncta movement and size. […] Puncta detected with 100 were competed with HS-10 (FIG. 3d).

MDA-MB-468 cells [5] = assay: 100 internalization assay in MDA-MB-468 cells; format: cell-based; conditions: MDA-MB-468 cells; dose and time series
Procedure: as §1, §2, §3

[6] = tested on: MMTV-neu spontaneous mammary tumor; assay: Cryo-imaging and histology of MMTV-neu spontaneous mammary tumor mice; format: in vivo, mouse
Text: […] Slices of 5-μm thickness were cut and placed on slides to dry overnight. Slides were then deparaffinized and either H&E stained or rehydrated and stained with DAPI before mounting. Slides were imaged at 20× magnification on a Zeiss Axio Imager widefield fluorescence microscope equipped with a color camera.
To investigate the tumor specificity and eHsp90 internalization in a more relevant model of human breast cancer, the MMTV-neu spontaneous mammary tumor mouse model was used (FIGS. 4c-d). […] Following cryoslicing, each 40 μm slice was imaged for fluorescence and brightfield. […] Previous studies have reported the autofluorescence of Leydig cells in the testes due to the presence of a lipophilic pigment.

Cc1nn(-c2ccc(C(N)=O)c(NCCCOCCOCCOCCOCCOCCCN(Cc3ccc(C(=C\C=C4\N(CCCCS(=O)(=O)O)c5ccccc5C4(C)C)/C=C/C4=[N+](CCCCS(=O)(=O)[O-])c5ccccc5C4(C)C)cc3)Cc3ccc[c]([Sn]([CH3])([CH3])[CH3])c3)c2)c2c1C(=O)CC(C)(C)C2 [Compound 118, 4-(2-((E,3Z)-3-(4-(21-((2-carbamoyl-5-(3,6,6-trimethyl-4-oxo-4,5,6,7-tetrahydro-1H-indazol-1-yl)phenyl)amino)-2-(3-(trimethylstannyl)benzyl)-6,9,12,15,18-pentaoxa-2-azahenicosyl)phenyl)-5-((E)-3,3-dimethyl-1-(4-sulfobutyl)indolin-2-ylidene)penta-1,3-dien-1-yl)-3,3-dimethyl-3H-indol-1-ium-1-yl)butane-1-sulfonate]
stability on storage [1]: significant decomposition

Cc1nn(-c2ccc(C(N)=O)c(NCCCOCCOCCOCCOCCOCCCNC(=S)Nc3ccc4c(c3)C(=O)OC43c4ccc(O)cc4Oc4cc(O)ccc43)c2)c2c1C(=O)CC(C)(C)C2 [HS-27, reference compound]
puncta formation when applied to cells (MDA-MB-468 cells [2]): forms puncta | puncta formation on non-malignant cells (non-malignant cells): puncta do not form

Cc1nn(-c2ccc(C(N)=O)c(N[C@H]3CC[C@H](O)CC3)c2)c2c1C(=O)CC(C)(C)C2 [HS-10]
competition of binding of probe 100 to eHsp90 (eHsp90 [3]; MDA-MB-468 cells, 100 at 25 μM, 45 min, 1 μM HS-10 or 10 μM PUH71): competed | blocking of binding of 100 and HS-27 to eHsp90 (eHsp90 [3]; untethered Hsp90 inhibitors): blocked | competition of puncta detected with 100 (eHsp90 [4]): competed

CCOCCCNCc1ccc(C(=C\C=C2\N(CCCCS(=O)(=O)O)c3ccccc3C2(C)C)/C=C/C2=[N+](CCCCS(=O)(=O)[O-])c3ccccc3C2(C)C)cc1 [Compound 19, 4-(2-((1E,3Z)-5-((E)-3,3-dimethyl-1-(4-sulfobutyl)indolin-2-ylidene)-3-(4-(((3-ethoxypropyl)amino)methyl)phenyl)penta-1,3-dien-1-yl)-3,3-dimethyl-3H-indol-1-ium-1-yl)butane-1-sulfonate]
puncta formation when applied to cells (MDA-MB-468 cells [2]): does not form puncta

Cc1nn(-c2ccc(C(=O)N(C)C)c(NCCCOCCOCCOCCOCCOCCCNCc3ccc(C(=C\C=C4\N(CCCCS(=O)(=O)O)c5ccccc5C4(C)C)/C=C/C4=[N+](CCCCS(=O)(=O)[O-])c5ccccc5C4(C)C)cc3)c2)c2c1C(=O)CC(C)(C)C2 [Compound 101, 4-(2-((1E,3Z)-5-((E)-3,3-dimethyl-1-(4-sulfobutyl)indolin-2-ylidene)-3-(4-(21-((2-(dimethylcarbamoyl)-5-(3,6,6-trimethyl-4-oxo-4,5,6,7-tetrahydro-1H-indazol-1-yl)phenyl)amino)-6,9,12,15,18-pentaoxa-2-azahenicosyl)phenyl)penta-1,3-dien-1-yl)-3,3-dimethyl-3H-indol-1-ium-1-yl)butane-1-sulfonate]
uptake of probe (MDA-MB-468 cells [5]): only weakly internalized at higher concentrations | probe uptake in MMTV-neu mammary tumor ([6]; 25 nmol i.v., 6 hours, cryoslicing and histology): No uptake was observed | specific drug fluorescence in duct epithelium of tumor cells (histology) ([6]; FIG. 5, serial sections, DAPI/Cy5): not in the 101-treated mouse
